# Key:
# Conditions in all cases: 72 h
# Calu-3 [1] = test: drug sensitivity score (DSS) for viability; higher = more toxic; extreme values may be limits of the assay
# HepG2 [2] = test: as above
# Vero E6 [3] = test: as above
# Caco-2 [4] = test: as above
# Calu-3 [5] = test: relative viability EC50 (midpoint between 100% and the lowest measured viability); higher = less toxic
# HepG2 [6] = test: as above
# Vero E6 [7] = test: as above
# Caco-2 [8] = test: as above
# Calu-3 [9] = test: cell viability relative to DMSO; higher = less toxic
# HepG2 [10] = test: as above
# Vero E6 [11] = test: as above
# Caco-2 [12] = test: as above
# U2OS [13] = test: drug sensitivity score (DSS) for viability; higher = more toxic; extreme values may be limits of the assay
# U2OS [14] = test: relative viability EC50 (midpoint between 100% and the lowest measured viability); higher = less toxic
# U2OS [15] = test: cell viability relative to DMSO; higher = less toxic
SMILES,drug sensitivity score (Calu-3 [1]),drug sensitivity score (HepG2 [2]),drug sensitivity score (Vero E6 [3]),drug sensitivity score (Caco-2 [4]),relative viability EC50 (Calu-3 [5]) [µM],relative viability EC50 (HepG2 [6]) [µM],relative viability EC50 (Vero E6 [7]) [µM],relative viability EC50 (Caco-2 [8]) [µM],cell viability (Calu-3 [9]; 1 nM) [%],cell viability (Calu-3 [9]; 10 nM) [%],cell viability (Calu-3 [9]; 100 nM) [%],cell viability (Calu-3 [9]; 1000 nM) [%],cell viability (Calu-3 [9]; 10000 nM) [%],cell viability (HepG2 [10]; 1 nM) [%],cell viability (HepG2 [10]; 10 nM) [%],cell viability (HepG2 [10]; 100 nM) [%],cell viability (HepG2 [10]; 1000 nM) [%],cell viability (HepG2 [10]; 10000 nM) [%],cell viability (Vero E6 [11]; 1 nM) [%],cell viability (Vero E6 [11]; 10 nM) [%],cell viability (Vero E6 [11]; 100 nM) [%],cell viability (Vero E6 [11]; 1000 nM) [%],cell viability (Vero E6 [11]; 10000 nM) [%],cell viability (Caco-2 [12]; 1 nM) [%],cell viability (Caco-2 [12]; 10 nM) [%],cell viability (Caco-2 [12]; 100 nM) [%],cell viability (Caco-2 [12]; 1000 nM) [%],cell viability (Caco-2 [12]; 10000 nM) [%],drug sensitivity score (U2OS [13]),relative viability EC50 (U2OS [14]) [µM],cell viability (U2OS [15]; 1 nM) [%],cell viability (U2OS [15]; 10 nM) [%],cell viability (U2OS [15]; 100 nM) [%],cell viability (U2OS [15]; 1000 nM) [%],cell viability (U2OS [15]; 10000 nM) [%]
COc1ccc(CC(=O)NC(/N=C(\NC#N)Nc2cccc3ncccc23)C(C)(C)C)cc1OC (configuration not stated),0,0,0,0,> 10,> 10,> 10,> 10,113,96.5,95.6,109,103,107,95.7,93.8,97.5,106,103,97,91.1,96.9,99.8,101,97.8,94.1,101,99.7,,,,,,,
Clc1cccc(-n2nnnc2NCc2ccccc2Oc2ccccn2)c1Cl,0,0,,0,> 10,> 10,,> 10,92,93.5,88,89.1,102,104,98.4,104,104,92.1,,,,,,104,97.1,104,96.2,96.1,0,> 10,101,98.9,100,102,98.9
Nc1nc(N)c2nc(-c3cccc(O)c3)cnc2n1,6.6,3.9,0.2,1.6,1.4,2,> 10,> 10,99.9,97.5,103,80,34.1,98.1,99.7,102,92.5,49.6,103,95.5,97.7,98.4,86.7,93.5,105,99.1,84.5,86.1,3.2,,95.6,99.4,99.7,95.5,51.7
O=C(Cc1ccc(Cl)c(Cl)c1)N1CCCC[C@@H]1CN1CCCC1,0,0.4,0,0,> 10,> 10,> 10,> 10,100,105,92.1,109,103,95.8,93.5,99.1,89.8,83.5,102,104,99.5,105,98.7,85.2,97,104,95.5,102,,,,,,,
CCn1c(=O)/c(=C2\Sc3ccccc3N2C)s/c1=C\c1cccc[n+]1CC [MKT-077],5.2,2.6,0.9,3.8,2.64,3.23,> 10,2.43,96.4,99.9,101,94.8,20.8,104,92.8,109,100,49,100,97.1,95.3,90.8,81,92.5,93.7,100,95,44,3.5,,97.8,98.4,96.2,94.3,51.4
COc1ccc(CCC(=O)c2c(O)cc(O[C@@H]3O[C@H](CO)[C@@H](O)[C@H](O)[C@H]3O[C@@H]3O[C@@H](C)[C@H](O)[C@@H](O)[C@H]3O)cc2O)cc1O [Neohesperidin dihydrochalcone (Nhdc)],0,0,0,0,> 10,> 10,> 10,> 10,108,92.8,102,99.6,109,101,110,108,107,92.1,103,104,99.9,104,99.7,102,104,95.2,94.2,106,,,,,,,
O=C(c1c(F)ccc(NS(=O)(=O)N2CC[C@@H](F)C2)c1F)c1c[nH]c2ncc(-c3cnc(C4CC4)nc3)cc12 [PLX8394],0,0.6,0,1.9,> 10,> 10,> 10,,105,105,83.6,104,114,91,90.5,106,101,79.1,102,96.6,104,98.8,113,102,99.2,94.4,91.7,71.8,0,> 10,96,105,104,107,93.3
CC(C)=CCC[C@](C)(O)[C@H]1CC[C@]2(C)[C@@H]1[C@H](O)C[C@@H]1[C@@]3(C)CC[C@H](O)C(C)(C)[C@@H]3CC[C@]12C [S-111],0,,0,0,> 10,,> 10,> 10,95.5,95.4,89.1,97.2,93,,,,,,104,102,98.3,105,100,106,98.3,103,104,99.8,,,,,,,
N[C@@H](CSC(c1ccccc1)(c1ccccc1)c1ccccc1)C(=O)O [S-trityl-L-cysteine],0.5,3.2,3,2.1,> 10,3.21,3.07,,105,104,94.2,92.5,84.6,83.6,93,104,100,40.5,98.5,100,102,99.2,45,96.6,100,85.9,98.4,61.4,2.7,3.25,101,104,94.6,101,48.5
CN(C)C(=O)C(=O)c1cn(C)c2cc(Cl)c(C(=O)N3CCC(Cc4ccc(F)cc4)CC3)cc12 [SX-011],0,0.1,0.1,2.3,> 10,> 10,> 10,,94.6,108,116,97.3,91.2,112,102,104,102,86.5,110,94.6,100,93.2,89.2,93.9,96.3,98.3,93.5,70.4,0,> 10,99.1,100,97.1,102,91.2
O=C(Nc1ccc(N2CCC(C(=O)N3CCOCC3)CC2)cc1)c1cnc(Oc2ccccc2)nc1 [TFC-007],0,0,0,0,> 10,> 10,> 10,> 10,96,87.6,100,100,103,106,110,101,91.8,91.4,90.1,101,90,95,110,99.6,101,110,97.9,110,,,,,,,
CCOc1cc(N2CCC(O)CC2)ccc1Nc1ncc2c(n1)N(C)c1ccccc1C(=O)N2C [XMD8-92],0.5,0.8,4.3,0.9,> 10,,2.26,> 10,90.2,112,98.1,109,77.5,101,99.4,102,104,74.4,99.7,93.2,99.7,93.5,41.2,96.1,93,90,89.8,84.6,1.8,,92.7,105,93.6,94.6,73.3
OCc1ccc(-c2nn(Cc3ccccc3)c3ccccc23)o1 [YC-1],0,9.5,0,0,> 10,1.5,> 10,> 10,106,93.2,109,104,115,104,112,102,73.5,0.4,103,103,104,104,98.1,106,112,105,113,97.4,1.5,,104,105,102,101,65.6
Cn1nnnc1SCC1=C(C(=O)O)N2C(=O)[C@@H](NC(=O)[C@H](OC=O)c3ccccc3)[C@H]2SC1 [cefamandole-nafate],0,0,0,0,> 10,> 10,> 10,> 10,90.2,108,94.4,94.1,92.6,85.1,103,100,94.3,93.3,104,104,96.9,102,104,97.9,91.8,98.6,99.4,100,,,,,,,
CN1C[C@H](C(=O)N[C@]2(C)O[C@@]3(O)[C@@H]4CCCN4C(=O)[C@H](Cc4ccccc4)N3C2=O)C[C@@H]2c3cccc4[nH]cc(c34)C[C@H]21 [dihydroergotamine],0,0,,0,> 10,> 10,,> 10,102,96.9,96.3,95.1,114,109,113,105,109,97.3,,,,,,102,98.3,108,111,99.7,,,,,,,

# From the supplement of paper PMC13380429
